Experiments:
[1] = tested on: differentiation from Th0 cells to Th2 cells; experiment: Inhibitory effect on induction of differentiation from Th0 cells to Th2 cells (DNP-As immunized mice, popliteal lymph node, intracellular cytokine FACS); type: in vivo, BALB/c mice; details: for increase in the % Th2 / increase in the Th2/Th1 ratio: BALB/c mice immunized with DNP-As; for % Th1 / % Th2 / Th2/Th1: BALB/c mice immunized with DNP-As/Alum, popliteal lymph node 6 days after immunization, n = 3
Procedure: Experiment 1 Inhibitory Effect on Induction of Differentiation from Th0 Cells to Th2 Cells
In an experiment to induce the differentiation from Th0 cells to Th2 cells, 9 to 11 week-old female mice of BALB/cCrSlc purchased from Japan SLC, Inc. or of BALB/cAnNCrj purchased from Charles River Japan, Inc. were used.
In an experiment to induce the differentiation from Th0 cells to Th2 cells, a DNP-As (dinitrophenylated Ascaris protein (porcine ascarid extract protein)) was used as an antigen, 10 μg of which and 250 μg of Alum (aluminum hydroxide adjuvant) in physiological saline in the final volume of 50 μl was injected into the soles of the both hind legs of each mouse, whereby effecting immunization. In a negative control group, each animal was treated similarly by an injection of 50 μl of physiological saline. 6 Days after injection, two popliteal lymph nodes were removed from right and left knees, and passed through a metal mesh (200 mesh size) in Hanks' balanced salt solution (HBSS) to prepare a cell suspension. In the group treated with physiological saline, preparations from two animals were combined and subjected to the experiment because of a small cell number. A compound according to the invention was suspended in 0.5% methylcellulose (MC) and 0.1 ml per 20 g mouse was given orally every day over a period from the day of immunization through the 5th day. The immunized vehicle control group and the negative control group were treated with the same volume of 0.5% MC.
Cells prepared from popliteal lymph nodes of these mice were suspended at 1−2×10^6 cells/ml (1–2 ml) in an RPMI 1640 medium (containing 10% fetal bovine serum—FBS and 50 μM 2-mercaptoethanol) and supplemented with PMA (Phorbol 12-Myristate 13-Acetate) at the final concentration of 50 ng/ml and 250 ng/ml A23187 (Ca ionophore) and then incubated at 37° C. in the presence of 5% CO2. After incubating for 4 hours, Brefeldin A was added at the final concentration of 10 μg/ml and the mixture was incubated further for 2 hours. The cells were recovered and washed twice with a staining buffer (PBS containing 1% FBS and 0.1% sodium azide) and suspended in 100 μl of the staining buffer containing 5 μg/ml of Fc Block (rat anti-mouse CD 16/CD32 purified monoclonal antibody, Pharmingen) and incubated on ice for 5 minutes to block the non-specific adsorption of the labeled antibody, and then combined with an equal volume of a Cy-Chrome-labelled rat anti-mouse CD4 monoclonal antibody (Pharmingen) which had been 200-fold diluted with the staining buffer and incubated on ice for 30 minutes. After washing three times with the staining buffer, the cells were suspended in PBS and combined with an equal volume of a fixation solution (4% p-formaldehyde) and incubated at 4° C. overnight, whereby effecting the fixation. The fixed cells thus obtained were washed twice with the staining buffer and suspended in a permeabilazation buffer (PBS containing 1% FBS, 0.5% saponin and 0.1% sodium azide) and incubated on ice for 10 minutes, and then each cell sample was recovered as being divided into two equal portions. Each portion was suspended in 100 μl of the permeabilazation buffer containing 5 μg/ml Fc Block and incubated on ice for 5 minutes to block the non-specific adsorption of the labeled antibody into the cells. One portion was combined with each 100 μl of an FITC-labelled rat anti-mouse IFNγ monoclonal antibody (Pharmingen) and a PE-labeled rat anti-mouse IL-4 monoclonal antibody (Pharmingen) each had been 50-fold diluted with the permeabilazation buffer and incubated on ice for 30 minutes. The other portion, serving as a control representing the non-specific adsorption of the labeled antibody, was combined with each 100 μl of each control antibody at the same concentration, i.e., an FITC-labelled rat IgG1κ purified antibody (Pharmingen) and a PE-labeled rat IgG1κ purified antibody (Pharmingen) to effect the similar staining. […]

[2] = tested on: differentiation from Th0 cells to Th1 cells; experiment: Effect on induction of differentiation from Th0 cells to Th1 cells (mice immunized with non-viable Mycobacterium tuberculosis, popliteal lymph node, intracellular cytokine FACS); type: in vivo, C57BL/6 mice; details: for % Th1 / % Th2: C57BL/6N mice immunized with non-viable Mycobacterium tuberculosis, popliteal lymph node 6 days after immunization, n = 3; for effect on the increase in the % Th1: CD4 positive T cells, popliteal lymph node, C57BL/6 mice immunized with non-viable Mycobacterium tuberculosis
Procedure: In an experiment to induce the differentiation from Th0 cells to Th1 cells, 8 week-old female mice of C57BL/6NCrj purchased from Charles River Japan, Inc. were used.
On the other hand, in an experiment to induce the differentiation from Th0 cells to Th1 cells, a non-viable Mycobacterium tuberculosis H37RA (DIFCO) was suspended in physiological saline, and 125 μg/50 μl was used for immunization as described above. In the group treated with physiological saline, the preparations from 4 animals were combined and subjected to the experiment.
Cells prepared from popliteal lymph nodes of these mice were suspended at 1−2×10^6 cells/ml (1–2 ml) in an RPMI 1640 medium (containing 10% fetal bovine serum—FBS and 50 μM 2-mercaptoethanol) and supplemented with PMA (Phorbol 12-Myristate 13-Acetate) at the final concentration of 50 ng/ml and 250 ng/ml A23187 (Ca ionophore) and then incubated at 37° C. in the presence of 5% CO2. After incubating for 4 hours, Brefeldin A was added at the final concentration of 10 μg/ml and the mixture was incubated further for 2 hours. The cells were recovered and washed twice with a staining buffer (PBS containing 1% FBS and 0.1% sodium azide) and suspended in 100 μl of the staining buffer containing 5 μg/ml of Fc Block (rat anti-mouse CD 16/CD32 purified monoclonal antibody, Pharmingen) and incubated on ice for 5 minutes to block the non-specific adsorption of the labeled antibody, and then combined with an equal volume of a Cy-Chrome-labelled rat anti-mouse CD4 monoclonal antibody (Pharmingen) which had been 200-fold diluted with the staining buffer and incubated on ice for 30 minutes. After washing three times with the staining buffer, the cells were suspended in PBS and combined with an equal volume of a fixation solution (4% p-formaldehyde) and incubated at 4° C. overnight, whereby effecting the fixation. The fixed cells thus obtained were washed twice with the staining buffer and suspended in a permeabilazation buffer (PBS containing 1% FBS, 0.5% saponin and 0.1% sodium azide) and incubated on ice for 10 minutes, and then each cell sample was recovered as being divided into two equal portions. Each portion was suspended in 100 μl of the permeabilazation buffer containing 5 μg/ml Fc Block and incubated on ice for 5 minutes to block the non-specific adsorption of the labeled antibody into the cells. One portion was combined with each 100 μl of an FITC-labelled rat anti-mouse IFNγ monoclonal antibody (Pharmingen) and a PE-labeled rat anti-mouse IL-4 monoclonal antibody (Pharmingen) each had been 50-fold diluted with the permeabilazation buffer and incubated on ice for 30 minutes. The other portion, serving as a control representing the non-specific adsorption of the labeled antibody, was combined with each 100 μl of each control antibody at the same concentration, i.e., an FITC-labelled rat IgG1κ purified antibody (Pharmingen) and a PE-labeled rat IgG1κ purified antibody (Pharmingen) to effect the similar staining. After washing three times with the cell membrane permeation buffer and twice with the staining buffer, the cells were suspended in 500 μl of the staining buffer and transferred through a nylon mesh into a FACS analysis tube.
The significant difference was analyzed by Dunnett multiple comparison test and Student t test.

[3] = 2.5 mg/kg orally daily for 6 days
[4] = 10 mg/kg orally daily for 6 days
[5] = 40 mg/kg orally daily for 6 days
[6] = 40 mg/kg orally for consecutive 6 days after immunization, CD4 positive T cells, popliteal lymph node
[7] = 10 mg/kg orally for consecutive 6 days after immunization

Compound | increase in the % Th2 ([1]; 10 mg/kg or higher) | increase in the Th2/Th1 ratio ([1]; 10 mg/kg or higher) | % Th1 [1, 3] [%] | % Th2 [1, 3] [%] | Th2/Th1 [1, 3] | % Th1 [1, 4] [%] | % Th2 [1, 4] [%] | Th2/Th1 [1, 4] | % Th1 [1, 5] [%] | % Th2 [1, 5] [%] | Th2/Th1 [1, 5] | % Th1 ([2]; 40 mg/kg) [%] | % Th2 ([2]; 40 mg/kg) [%] | effect on the increase in the % Th1 [2] | increase in the % Th2 [1, 6] | increase in the Th2/Th1 ratio [1, 6] | increase in the % Th2 [1, 7] | increase in the Th2/Th1 ratio [1, 7] | % Th1 ([2]; 10 mg/kg) [%] | % Th2 ([2]; 10 mg/kg) [%]
CC(C)=CCNc1ccc(-c2cc(C)c(-c3ccc(OCC=C(C)C)nc3)cc2C)c(F)c1 [Compound I-6] | significantly inhibited | significantly inhibited | 0.70 ± 0.02 | 1.41 ± 0.10 | 2.03 ± 0.20 | 0.54 ± 0.05 | 0.15 ± 0.01 | 0.29 ± 0.02 | 0.66 ± 0.02 | 0.03 ± 0.03 | 0.04 ± 0.05 | 1.03 ± 0.10 | 0.03 ± 0.02 | no effect |  |  |  |  |  | 
CC(C)=CCNc1ccc(-c2cc(C)c(-c3cnc(OCC=C(C)C)nc3)cc2C)c(F)c1 [Compound I-55] |  |  |  |  |  |  |  |  | 0.53 ± 0.05 | 0.05 ± 0.02 | 0.09 ± 0.03 |  |  |  | significantly inhibited | significantly inhibited |  |  |  | 
COc1c(C)c(-c2ccc(NCC=C(C)C)cc2)c(C)c(C)c1-c1ccc(OCC=C(C)C)c(F)c1 [Compound I-80] |  |  |  |  |  |  |  |  | 0.29 ± 0.03 | 0.07 ± 0.03 | 0.27 ± 0.12 | 0.93 ± 0.11 | 0.02 ± 0.04 | no effect | significantly inhibited | significantly inhibited |  |  |  | 
COc1c(C)c(-c2ccc(OCC=C(C)C)c(F)c2)c(C)c(C)c1-c1ccc(NCC=C(C)C)cc1 [Compound I-89] |  |  |  |  |  | 0.23 ± 0.02 | −0.04 ± 0.00 | −0.19 ± 0.01 |  |  |  |  |  | no effect |  |  | significantly inhibited | significantly inhibited | 0.70 ± 0.20 | 0.02 ± 0.06
COc1c(C)c(-c2ccc(NCC=C(C)C)cc2)c(C)c(C)c1-c1ccc(OCC(F)(F)F)nc1 [Compound I-90] |  |  |  |  |  |  |  |  | 0.40 ± 0.02 | 0.08 ± 0.03 | 0.22 ± 0.09 |  |  |  | significantly inhibited | significantly inhibited |  |  |  | 
COc1c(C)c(-c2ccc(NCC=C(C)C)c(F)c2)c(OC)c(C)c1-c1ccc(NCC=C(C)C)nc1 [Compound I-102] |  |  |  |  |  |  |  |  | 0.34 ± 0.09 | −0.01 ± 0.01 | −0.05 ± 0.06 | 0.82 ± 0.16 | 0.07 ± 0.04 | no effect | significantly inhibited | significantly inhibited |  |  |  | 
CC(C)=CCNc1ccc(-c2cc(C)c(-c3cnc(OCC=C(C)C)nc3)cc2C)c(C)c1 [Compound I-132] |  |  |  |  |  |  |  |  | 0.46 ± 0.07 | 0.05 ± 0.02 | 0.12 ± 0.04 |  |  |  | significantly inhibited | significantly inhibited |  |  |  | 
COc1c(C)c(-c2ccc(OCC(C)C)c(O)c2)c(C)c(C)c1-c1ccc(NCC=C(C)C)cc1 [Compound I-133] |  |  |  |  |  |  |  |  | 0.45 ± 0.03 | 0.20 ± 0.05 | 0.45 ± 0.09 |  |  |  | significantly inhibited | significantly inhibited |  |  |  | 

Source: patent publication US7008954B1, “Th2 differentiation inhibitors” (Shionogi & Co., Ltd., priority 1999, dated 2006)
